Data from BindingDB's records for doi:10.1016/j.chembiol.2011.11.010 (Harvard Medical School, 2012).

Experiments:
Assay in all cases: JNK Kinase Assay
[1] = target: Mitogen-activated protein kinase 10 (Homo sapiens, UniProt P53779)
Text: (§1) The binding results were confirmed by measuring IC50 for the inhibition of JNK kinase activity by using Z'-LYTE assay format.

[2] = target: Mitogen-activated protein kinase 8 (Homo sapiens, UniProt P45983)
Text: as §1

[3] = target: Mitogen-activated protein kinase 9 (Homo sapiens, UniProt P45984)
Chain of Mitogen-activated protein kinase 9 (P45984 whole entry): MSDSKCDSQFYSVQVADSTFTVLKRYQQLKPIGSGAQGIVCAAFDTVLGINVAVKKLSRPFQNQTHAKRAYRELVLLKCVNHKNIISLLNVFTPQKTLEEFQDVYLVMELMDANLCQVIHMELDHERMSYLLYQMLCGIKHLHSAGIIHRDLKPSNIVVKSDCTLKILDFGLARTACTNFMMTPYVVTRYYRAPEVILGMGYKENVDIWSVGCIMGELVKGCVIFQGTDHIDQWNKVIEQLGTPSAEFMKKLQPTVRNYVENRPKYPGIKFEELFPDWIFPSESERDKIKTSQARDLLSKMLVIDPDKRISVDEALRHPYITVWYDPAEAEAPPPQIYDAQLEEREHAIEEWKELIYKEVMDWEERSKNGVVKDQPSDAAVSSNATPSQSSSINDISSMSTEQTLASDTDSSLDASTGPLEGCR
Text: as §1

Chain of Mitogen-activated protein kinase 10 (P53779 whole entry): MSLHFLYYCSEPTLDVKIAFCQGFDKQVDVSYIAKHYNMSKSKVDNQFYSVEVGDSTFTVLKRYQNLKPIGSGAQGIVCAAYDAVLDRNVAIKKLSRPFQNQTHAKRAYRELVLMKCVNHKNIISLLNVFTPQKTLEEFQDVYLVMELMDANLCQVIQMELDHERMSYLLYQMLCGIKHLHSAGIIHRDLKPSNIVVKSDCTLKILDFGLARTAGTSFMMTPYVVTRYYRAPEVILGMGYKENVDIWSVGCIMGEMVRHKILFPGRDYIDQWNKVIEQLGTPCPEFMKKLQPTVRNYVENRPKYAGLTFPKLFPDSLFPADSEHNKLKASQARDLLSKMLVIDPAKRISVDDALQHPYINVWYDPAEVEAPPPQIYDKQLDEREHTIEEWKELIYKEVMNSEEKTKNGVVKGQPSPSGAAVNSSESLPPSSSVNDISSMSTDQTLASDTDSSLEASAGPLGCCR
Chain of Mitogen-activated protein kinase 8 (P45983 whole entry): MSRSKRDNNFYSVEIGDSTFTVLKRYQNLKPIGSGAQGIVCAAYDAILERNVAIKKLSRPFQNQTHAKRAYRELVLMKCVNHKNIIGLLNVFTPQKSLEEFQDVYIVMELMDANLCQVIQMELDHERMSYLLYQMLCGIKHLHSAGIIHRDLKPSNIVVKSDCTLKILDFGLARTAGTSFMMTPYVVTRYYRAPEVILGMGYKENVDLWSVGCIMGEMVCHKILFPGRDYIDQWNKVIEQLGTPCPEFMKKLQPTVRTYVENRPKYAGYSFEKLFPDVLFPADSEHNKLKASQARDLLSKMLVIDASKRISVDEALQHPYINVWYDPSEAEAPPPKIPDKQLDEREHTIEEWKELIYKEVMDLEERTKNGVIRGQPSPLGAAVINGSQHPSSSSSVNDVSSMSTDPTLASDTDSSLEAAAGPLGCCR

SMILES	IC50 [1] [µM]	IC50 [2] [µM]	IC50 [3] [µM]
O=C1c2ccccc2-c2n[nH]c3cccc1c23	0.19		
Cc1ccc(NC(=O)c2ccc(NC(=O)/C=C/CN(C)C)cc2)cc1Nc1nccc(-c2cccnc2)n1 [JNK-IN-1]	7.75	7.78	4.23
CN(C)C/C=C/C(=O)Nc1ccc(C(=O)Nc2cccc(Oc3nccc(-c4cccnc4)n3)c2)cc1 [JNK-IN-3]	> 10	> 10	> 10
CN(C)C/C=C/C(=O)NCc1ccc(C(=O)Nc2cccc(Nc3nccc(-c4cccnc4)n3)c2)cc1 [JNK-IN-4]	7.22	2.39	5.46

The remaining molecules from weak to strong by IC50 [2], led by results:

IC50 [1] [µM]	IC50 [2] [µM]	IC50 [3] [µM]	SMILES
	0.809	1.14	CN(C)C/C=C/C(=O)Nc1ccc(C(=O)Nc2cccc(Nc3nccc(-c4cccnc4)n3)c2)cc1 [JNK-IN-2]
	0.15	0.22	N#CC(c1ccnc(NCCc2cccnc2)n1)c1nc2ccccc2s1 (configuration not stated) [[3H-Benzothiazol-(2Z)-ylidene]-[2-(2-pyridin-3-yl-ethylamino)-pyrimidin-4-yl]-acetonitrile]
0.011	0.013	0.0113	CN(C)C/C=C/C(=O)Nc1cccc(C(=O)Nc2ccc(Nc3nccc(C(C#N)c4nc5ccccc5s4)n3)cc2)c1 (configuration not stated) [JNK-IN-12]
